The values below come from patent US6037351A, “Method of inhibiting hepatitis B virus” (priority 1996, dated 2000).

Assay [1] relates to hepatitis B virus (HBV). The experiment in a line: Intracellular HBV DNA in infected HepG2 cells (PCR, densitometry). In kind it is cell-based, HBV in human hepatoma HepG2 cells. Particulars: HepG2 cells infected with HBV and post treated with NBDNJ, vs untreated. On the procedure: FIG. 3B and FIG. 3D: DNA from the intracellular compartment of the cultures infected in FIG. 3A with HBV and treated with NBDNJ were amplified by PCR. The lanes contain amplified DNA from the following samples:
FIG. 3D: Histogram of the area under the averaged peaks of the densitometric tracing of the gel in FIG. 3B. […] Equal volumes of the indicated samples were tested for HBV envelope antigens using the enzyme-linked imminosorbent assay (ELISA) method. Samples of unfractionated medium (FIGS. 4A, 4B and 4C) or partially purified virus (FIGS. 4D, 4E and 4F) from 3-day cultures were tested for HBV SHBs ("S) (FIGS. 4A and 4D), LHBs: "PreS1" (FIGS. 4B and 4E) or MHBs "PreS2" (FIGS. 4C and 4F) epitopes. […]
Progeny virus in the medium of HepG2 cells infected with serum derived HBV was detected by precipitating medium with monoclonal antibody to the PreS2 epitopes. […]
Since the culture medium of HBV infected HepG2 cells treated with NBDNJ was similar to 2.2.15 cells, with respect to the reduced amount of virion associated DNA, it was of interest to know if there was a concomitant increase in viral DNA within the treated cells. […] Products of the reaction were resolved by agarose gel electrophoresis and the ethidium bromide stained gel (FIG. 3B) was analyzed by densitometry (FIG. 3D).

The test system of assay [2] is hepatitis B virus (HBV). The experiment in a line: Intracellular HBV DNA in 2.2.15 cells (Southern blot, densitometry). Conditions: for increase in intracellular HBV copy abundance: adjusted for loading variation. Type of assay: cell-based, HBV in human hepatoma HepG 2.2.15 cells. Here is the method: HepG 2.2.15 cells were grown for 6 days in the presence of the indicated concentration of NBDNJ with one change of medium. After the sixth day (seventh day in culture), cells and medium were collected. Autoradiograms of the viral DNA detected by hybridization of membranes to HBV probes are shown.
FIG. 2B: autoradiogram of a Southern blot of total intracellular DNA, digested to completion with EcoRI, from cells maintained in the absence of NBDNJ (lane 1) and in the presence of the following NBDNJ concentrations:
DNA was prepared from the pellets as in Sells and Chen, Proc. Natl. Acad. Sci. USA 84, 1005-1009 (1987). For Southern blots [Maniatis et al., Molecular cloning, a laboratory manual, Cold Spring Harbor Laboratory, Cold Spring Harbor, N.Y. (1982)], DNA was resolved by electrophoresis through 1.2% agarose, transferred to H+ bond (Amersham) filter paper and hybridized with radioactive ^32 P (Amersham) HBV probe (made by the random priming method described by the kit manufacturer, (Amersham), using pHBV as template [Foster et al., Proc. Natl. Acad. Sci. USA 88, 2888-2892 (1991)].
The NBDNJ-mediated decrease in virion associated HBV DNA in the medium could have been due to a decrease in viral DNA synthesis. Alternatively, it could have been due to a post synthetic event such as virion assembly, transport or egress from the cell. To distinguish between these possibilities, the amount of intracellular HBV specific DNA in untreated and NBDNJ treated 2.2.15 cells was compared.
Total cellular DNA was prepared from treated and untreated cells and digested to completion with EcoRI to linearize viral genomes. Near equal microgram amounts of digestion products (as determined by ethidium bromide staining and hybridization to a cell specific probe) were resolved by electrophoresis, Southern blotted and hybridized with the HBV specific probe (FIG. 2B). Unit length HBV genomes migrating as 3.2 kb bands are detected in DNA derived from untreated 2.2.15 cells (lane 1) and virions isolated from control culture medium (lane 5).

A further assay concerns LHBs (PreS1). The experiment in a line: Western blot of LHBs in sucrose gradient virion fraction. In kind it is cell-based, HBV. Particulars: Western blot densitometry, FIG. 5C vs 5B lane 2. Here is the method:
Polyethylene glycol (PEG) precipitates of culture medium (FIG. 5A) or partly purified virions, HBs filaments and spheres from untreated (FIG. 5B) and NBDNJ treated (FIG. 5C) cultures were resolved by SDS-PAGE (13.5% acrylamide), transferred to immobilin paper and incubated with PreS1 and PreS2 specific monoclonal antibody.
Samples were dissolved in loading buffer, resolved by electrophoresis through 13.5% SDS polyacrylamide gels (SDS-PAGE) and transferred to PVDF (Millipore) membranes and blocked with 5% powdered milk, as in Gultekin and Heerman, Analytical Biochem. 172, 320-329 (1989). After incubation with primary antibody overnight at room temperature in 1% bovine serum albumin (BSA) in TNE and second antibody (peroxidase conjugated goat anti-mouse IgG serum) for 1 hour in TNE at room temperature, membranes were developed in peroxide-diaminobenzidine (Sigma) PBS, as described in the manufacturer's instructions.
The ELISA results were confirmed by Western blot analysis of fractions from the sucrose gradient containing either intact virus, filaments or spheres (FIGS. 5B, from untreated cultures, and 5C, from NBDNJ treated cultures). […]
Fractions distal to the virion containing fractions (near the bottom of the gradient) were resolved in lane 1 to show specificity of the antibody. […] The images shown in FIGS. 5B and 5C) were quantified by densitometry.
A general note: In western blotting, separated proteins are transferred to a membrane and probed.

For the molecule `CCCCN1C[C@H](O)[C@@H](O)[C@H](O)[C@H]1CO` [NBDNJ, N-butyl-1,5-dideoxy-1,5-imino-D-glucitol], in the assay with hepatitis B virus (HBV) [1], the “accumulation of intracellular viral DNA” value was “accumulate greater amounts of viral DNA”. Further, the “increase in intracellular HBV copy abundance” value amounted to 1.7 fold in the assay on hepatitis B virus (HBV) [2] (NBDNJ 200 μg/ml), 3.0 fold in the assay on hepatitis B virus (HBV) [2] (NBDNJ 500 μg/ml) and 5.1 fold in the assay with hepatitis B virus (HBV) [2] (NBDNJ 1000 μg/ml). Further, the “amount of intracellular HBV DNA (in words)” value in the assay with hepatitis B virus (HBV) [2] (NBDNJ 200, 500, 1000 μg/ml) is “clear dose-dependent increase”. Further, the “decrease of LHBs in virion samples compared to untreated” value with LHBs (PreS1) was “approximately 4 fold”.
